Tests used:
isolated rat aorta = assay: Test with the use of isolated rat aorta (relaxation of potassium chloride contraction); conditions: relaxation of continuous contraction due to 30 mM potassium chloride, thoracic aorta of male Sprague Dawley rats, read-out: Rat aorta IC50
Experimental: The thoracic aorta was taken out from male Sprague Dawley rats weighing 450 to 600 g and cut into circular samples of 2 mm in width. […] The contraction reactions of the samples were isometrically recorded with FD pick-up. After 1 to 1.5 hours of equilibration, 30 mM potassium chloride was added to contract the tissue. […] As the test compounds, the invention compounds obtained in the above Examples were employed.

anesthetized rat = assay: Blood pressure-lowering effect in anesthetized rat; format: in vivo; conditions: duodenal administration; for Blood pressure-lowering effect ED30: dose causing a decrease in the blood pressure by 30%; for Blood pressure-lowering effect Half duration: half duration at ED30 (recovery to 50% of the maximum decrease in blood pressure)
Experimental: Male Sprague Dawley rats weighing 280 to 450 g were anesthetized with sodium pentobarbital (50 mg/kg, i.p.) and fixed in the supine position. A canula was inserted into the trachea of each animal. Then the blood pressure of the animal was measured (AP-621G, Nippon Kohden Corp.) through a polyethylene tube (PE50) inserted into the right femoral artery via a pressure transducer (Life Kit DTS, DX-300, Nippon Kohden Corp.) and the heart rate was determined from the pulse wave (AT-610G, Nippon Kohden Corp.). A canula (PE10) for injecting the maintenance anesthetic drug (sodium pentobarbital 20 mg/kg/h) was inserted into the right femoral vein. The abdominal region was medianly sectioned and a canula (PE50 connected to a injection needle 23G) for duodenal drug administration was inserted thereinto and fixed with Aronalpha for surgical use. After 60-90 minutes of recovery period, the drug was administered into duodenum. After administering the drug, the blood pressure was measured until the average blood pressure returned to the level before the administration.
As the indication of the blood pressure-lowering effect of each drug, the dose causing a decrease in the blood pressure by 30%, based on the level before the administration, was calculated from the dose-response curve and employed as the 30% effective dose (ED30). Moreover, the time required for the recovery to the level corresponding to 50% of the maximum decrease in the blood pressure (half duration) was measured at each dose. Then the half duration at the above-mentioned ED30 was calculated and employed as the indication of the lasting time of the blood pressure-lowering effect (half duration at ED30).
As the test compounds, use was made of the compounds of the present invention obtained in the above Examples. Table C summarizes the results. Table C

IC50 (isolated rat aorta) [nM] | Compound | Blood pressure-lowering effect ED30 (anesthetized rat) [mg/kg] | Blood pressure-lowering effect Half duration (anesthetized rat) [min]
910 | COc1cc(CCN(C)[n+]2cc([N-]C(=O)[C@H](C)CSC(=O)c3ccccc3)on2)cc(OC)c1OC [Example 64, N-((S)-3-(Benzoylthio)isobutyryl)-3-(N'-(2-(3,4,5-trimethoxyphenyl)ethyl)-N'-methylamino)sydnonimine] | – | –
23 | C[C@H](CSC(=O)c1ccccc1)C(=O)[N-]c1c[n+](N2CCOCC2)no1 [Example 4, N-((S)-3-(Benzoylthio)isobutyryl)-3-morpholinosydnonimine] | – | –
– | CC(=O)N[C@@H](CSC(=O)c1ccc(F)cc1)C(=O)[N-]c1c[n+](N2CCN(C)CC2)no1 [Example 185, N-((R)-2-Acetylamino-3-(4-fluorobenzoylthio)propionyl)-3-(4-methylpiperazin-1-yl)sydnonimine] | 1.5 | 53
180 | CC(C)(C)c1cc(SCC(=O)N2CCN([n+]3cc([N-]C(=O)CSC(=O)c4ccccc4)on3)CC2)cc(C(C)(C)C)c1O [Example 33, N-((Benzoylthio)acetyl)-3-(4-(3,5-di-t-butyl-4-hydroxyphenylthio)acetylpiperazin-1-yl)sydnonimine] | – | –
230 | CC(=O)SCC(=O)[N-]c1c[n+](N2CCN(C(=O)CSC(C)=O)CC2)no1 [Example 38-C, N-((Acetylthio)acetyl)-3-(4-((acetylthio)acetyl)piperazin-1-yl)sydnonimine] | – | –
– | CC(C)N1CCN([n+]2cc([N-]C(=O)CCSC(=O)c3ccccc3)on2)CC1 [Example 129, N-(3-(Benzoylthio)propionyl)-3-(4-isopropylpiperazin-1-yl)sydnonimine] | 1.3 | 42
– | Cc1cccc(C)c1C(=O)SCCC(=O)[N-]c1c[n+](N2CCN(C)CC2)no1 [Example 141, N-(3-(2,6-Dimethylbenzoylthio)propionyl)-3-(4-methylpiperazin-1-yl)sydnonimine] | 0.5 | 48
– | CC(=O)SCCC(=O)[N-]c1c[n+](N2CCN(Cc3ccccc3)CC2)no1 [Example 119, N-(3-(Acetylthio)propionyl)-3-(4-benzylpiperazin-1-yl)sydnonimine] | 1.2 | 49
– | C[C@H](CSC(=O)c1ccccc1)C(=O)[N-]c1c[n+](N2CCN(Cc3ccccc3)CC2)no1 [Example 18, N-((S)-3-(Benzoylthio)isobutyryl)-3-(4-benzylpiperazin-1-yl)sydnonimine] | 2.0 | 62
– | CCN1CCN([n+]2cc([N-]C(=O)CCSC(=O)c3c(F)cccc3F)on2)CC1 [Example 146, N-(3-(2,6-Difluorobenzoylthio)propionyl)-3-(4-ethylpiperazin-1-yl)sydnonimine] | 0.6 | 45
– | C[C@H](CSC(=O)c1ccccc1)C(=O)[N-]c1c[n+](N2CCN(C3CCCC3)CC2)no1 [Example 72, N-((S)-3-(Benzoylthio)isobutyryl)-3-(4-cyclopentylpiperazin-1-yl)sydnonimine] | 1.3 | 47
– | CN1CCN([n+]2cc([N-]C(=O)CCCSC(=O)c3ccccc3)on2)CC1 [Example 174, N-(4-(Benzoylthio)butyryl)-3-(4-methylpiperazin-1-yl)sydnonimine] | 0.5 | 43
– | CC(=O)SC[C@@H](C)C(=O)[N-]c1c[n+](N2CCN(C(C)C)CC2)no1 [Example 80, N-((S)-3-(Acetylthio)isobutyryl)-3-(4-isopropylpiperazin-1-yl)sydnonimine] | 0.6 | 49
– | COc1cc(CC(=O)[N-]c2c[n+](N3CCN(C)CC3)no2)cc(OC)c1OC [Example 42, N-((3,4,5-Trimethoxyphenyl)acetyl)-3-(4-methylpiperazin-1-yl)sydnonimine] | 4.0 | 60
– | CCN1CCN([n+]2cc([N-]C(=O)CCSC(=O)C(C)(C)C)on2)CC1 [Example 155, N-(3-(Pivaloylthio)propionyl)-3-(4-ethylpiperazin-1-yl)sydnonimine] | 0.2 | 46
– | Cc1cccc(C)c1C(=O)SCC(=O)[N-]c1c[n+](N2CCN(C)CC2)no1 [Example 132, N-((2,6-Dimethylbenzoylthio)acetyl)-3-(4-methylpiperazin-1-yl)sydnonimine] | 0.7 | 44
– | CN1CCN([n+]2cc([N-]C(=O)CCSc3cc(C(C)(C)C)c(O)c(C(C)(C)C)c3)on2)CC1 [Example 179, N-(3-(3,5-Di-t-butyl-4-hydroxyphenylthio)propionyl)-3-(4-methylpiperazin-1-yl)sydnonimine] | 0.9 | 43
– | CC(C)N1CCN([n+]2cc([N-]C(=O)CCSC(=O)c3ccc(F)cc3)on2)CC1 [Example 137, N-(3-(4-Fluorobenzoylthio)propionyl)-3-(4-isopropylpiperazin-1-yl)sydnonimine] | 0.6 | 46
– | CCOC(=O)[N-]c1cn(N2CCOCC2)n[o+]1 [molsidomine, reference compound] | 0.3 | 39
– | CC(=O)N[C@@H](CSC(C)=O)C(=O)[N-]c1c[n+](N2CCN(C(C)C)CC2)no1 [Example 183, N-((R)-2-Acetylamino-3-(acetylthio)propionyl)-3-(4-isopropylpiperazin-1-yl)sydnonimine] | 1.0 | 47
– | CN1CCN([n+]2cc([N-]C(=O)CCSC(=O)Nc3ccccc3)on2)CC1 [Example 171, N-(3-(Phenylcarbamoylthio)propionyl)-3-(4-methylpiperazin-1-yl)sydnonimine] | 0.3 | 45
– | CC(=O)N[C@@H](CSC(C)=O)C(=O)[N-]c1c[n+](N2CCN(C)CC2)no1 [Example 181, N-((R)-2-Acetylamino-3-(acetylthio)propionyl)-3-(4-methylpiperazin-1-yl)sydnonimine] | 0.8 | 60
– | Cc1c(C)c2c(c(C)c1O)CCC(C)(C(=O)SCC(=O)[N-]c1c[n+](N3CCN(C)CC3)no1)O2 (stereo not drawn) [Example 191, N-((6-Hydroxy-2,5,7,8-tetramethylchroman-2-carbonylthio)acetyl)-3-(4-methylpiperazin-1-yl)sydnonimine] | 1.0 | 58
– | CCN1CCN([n+]2cc([N-]C(=O)CSC(C)=O)on2)CC1 [Example 85, N-(Acetylthioacetyl)-3-(4-ethylpiperazin-1-yl)sydnonimine] | 0.3 | 44
– | CC(=O)SC[C@@H](C)C(=O)[N-]c1c[n+](N2CCN(C)CC2)no1 [Example 78, N-((S)-3-(Acetylthio)isobutyryl)-3-(4-methylpiperazin-1-yl)sydnonimine] | 1.0 | 40
– | CCNC(=O)SCCC(=O)[N-]c1c[n+](N2CCN(CC)CC2)no1 [Example 163, N-(3-(Ethylcarbamoylthio)propionyl)-3-(4-ethylpiperazin-1-yl)sydnonimine] | 0.2 | 44
– | C[C@H](CSC(=O)c1ccccc1)C(=O)[N-]c1c[n+](N2CCN(CC(F)(F)F)CC2)no1 [Example 70, N-((S)-3-(Benzoylthio)isobutyryl)-3-(4-(2,2,2-trifluoroethyl)piperazin-1-yl)sydnonimine] | 0.7 | 41
– | 3-(4-Benzylpiperazin-1-yl)-N-((3,4,5-trimethoxyphenyl)acetyl)sydnonimine [Example 17] | 1.4 | 21
– | CCN1CCN([n+]2cc([N-]C(=O)CCSC(C)=O)on2)CC1 [Example 122, N-(3-(Acetylthio)propionyl)-3-(4-ethylpiperazin-1-yl)sydnonimine] | 0.6 | 48
